# Source: PubChem BioAssay (NCI)
#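 The compound was tested at five concentrations on cells cultured in 96-well plates, with a 48-hour exposure period. TGI: total growth inhibition.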
# What was measured:
# Test in all cases: inhibition of tumour cell growth, NCI panel, 48 h
# [1] = test system: SNB-19 CNS
# [2] = test system: SF-295 CNS
# [3] = test system: RXF 393 renal
# [4] = test system: SK-MEL-28 melanoma
# [5] = test system: OVCAR-4 ovarian
# [6] = test system: NCI/ADR-RES ovarian
# [7] = test system: CAKI-1 renal
# [8] = test system: OVCAR-3 ovarian
# [9] = test system: SK-MEL-2 melanoma
# [10] = test system: HOP-92 NSCLC
SMILES,TGI [1] [µM],TGI [2] [µM],TGI [3] [µM],TGI [4] [µM],TGI [5] [µM],TGI [6] [µM],TGI [7] [µM],TGI [8] [µM],TGI [9] [µM],TGI [10] [µM]
O=S(c1ccc(Cl)cc1)c1ccccc1C1=NCCN1 (stereo not given),> 100,> 100,> 100,> 100,> 100,> 100,> 100,> 100,> 100,–
COc1cc(C2c3cc(OC)c(OC)c(O)c3C(=O)C3CCC(=O)N32)cc(OC)c1OC (stereo not given),> 100,> 100,–,> 100,> 100,> 100,> 100,> 100,> 100,> 100
CC(=O)OCC1OC(n2c(N)c(C#N)c(-c3cccc(Cl)c3)c(C#N)c2=S)C(OC(C)=O)C(OC(C)=O)C1OC(C)=O (stereo not given),> 100,> 100,22,> 100,> 100,96.4,> 100,58,45.2,> 100
CC(=O)OCCOCNC(=S)N/N=C(\C)c1cccs1,> 100,> 100,> 100,> 100,> 100,–,–,> 100,> 100,–
COc1ccc(CCCN2c3ccccc3Sc3ccccc32)cc1,> 100,> 100,> 100,> 100,> 100,–,> 100,–,> 100,> 100
CC(=O)c1ccc2c3c1O[C@H]1c4[nH]c5ccccc5c4C[C@@]4(O)[C@@H](C2)N(CC2CC2)CC[C@]314,20.8,29,27.3,> 100,39.9,26.6,37.4,23.4,30.9,28.2
Cc1ccc(N=C2SC(=NN(C)C)SC2=Nc2ccc(C)cc2)cc1,> 100,> 100,> 100,> 100,> 100,> 100,> 100,–,> 100,> 100
CCOC1NC(/N=C/c2ccc(OC)cc2)=C(C#N)C1C#N (stereo not given),> 100,> 100,> 100,> 100,> 100,> 100,> 100,> 100,> 100,–
O=C(CSCC(=O)N/N=C\c1ccccc1F)N/N=C\c1ccccc1F,> 100,> 100,> 100,> 100,> 100,63.1,> 100,> 100,> 100,> 100
CN(/N=C/c1ccc(Cl)cc1)C1=NCCCCN1,> 100,> 100,–,–,> 100,> 100,> 100,> 100,–,> 100
C=CCOCn1ccc(N)nc1=O,> 100,> 100,–,> 100,–,–,> 100,–,–,–
O=S1(=O)OCCCOS(=O)(=O)C1(Br)Br,> 100,> 100,> 100,> 100,> 100,> 100,> 100,> 100,> 100,–
CN(C)C=NCC(O)c1ccccc1 (stereo not given),> 100,–,> 100,> 100,> 100,> 100,> 100,> 100,> 100,> 100
Cc1ccc2c(=O)cc(Cc3csc4ccccc34)[nH]c2n1,> 100,93.8,> 100,> 100,91.4,52.4,> 100,> 100,> 100,–
c1ccc2c(c1)Sc1ccccc1N2C1CN2CCC1CC2 (stereo not given),46.7,32.2,–,32.1,35.2,–,33.9,31.5,16.8,–
OCC1OC(c2ccccc2)CC1O (stereo not given),> 100,> 100,> 100,> 100,> 100,> 100,> 100,> 100,> 100,–
NCCS(=O)(=O)O,> 100,> 100,–,> 100,–,> 100,> 100,> 100,> 100,> 100
O=c1[nH]nc(Cc2ccc(Cl)cc2)n1/N=C/c1c[nH]c2ccccc12,> 100,> 100,–,> 100,> 100,> 100,> 100,> 100,> 100,> 100
N#CCc1nc2cc(C(F)(F)F)ccc2s1,–,> 100,> 100,–,> 100,> 100,> 100,75.8,–,48.1
CC(C)C1=C(Cc2ccccc2)C(=O)O/C1=C\c1ccc(O)c(Cl)c1,33.7,29.5,31.2,30.9,27.8,–,32.9,28,–,–
S=C(N/N=C(\C(=N/NC(=S)N1CCCCC1)c1ccccn1)c1ccccn1)N1CCCCC1,> 100,> 100,73.4,> 100,–,> 100,> 100,> 100,–,> 100
CC1(C)CN=CC(C)(OCc2ccccc2)C(=O)NC(C)(C)CN=CC(C)(OCc2ccccc2)C(=O)N1 (stereo not given),> 10,> 10,> 10,> 10,–,–,–,> 10,> 10,0.808
O=C1CCCCN1C(=O)c1ccc([N+](=O)[O-])cc1,> 100,> 100,> 100,> 100,> 100,> 100,> 100,> 100,–,> 100
